Assay results as given in patent publication US20230270804A1, “ANTI-HYPERCHOLESTEROLEMIA COMPOSITION AND A METHOD OF MANUFACTURING THE SAME” (NBI BIOSCIENCES PRIVATE LIMITED, priority 2020, published 2023).

How the values were obtained:
Assay type in all cases: in vivo, Wistar strain albino rats
[1] = Prophylactic study (90 days): body weight; settings: for Average Body Weight: HFD+normal diet
Description: (§1) Wistar strain albino rats of body weight ranging from 190-225 g were selected for the present study. The temperature and humidity were kept at optimum (22+2° C.; 40-70% and animals were exposed to natural chronological day night cycles. The experiments were carried out in conformity with the Institutional Animal Ethics Committee.
(§2) The 6 groups were as follows: • 1. Normal Control • 2.

[2] = Therapeutic study: hematological parameters; settings: for Lymphocyte / Neutrophils: in % (unit assumed); for Eosinophil: unit assumed
Description: as §1, §2
1.5-2 ml blood sample was taken from retino-orbital chamber in vials for biochemical estimations at every 15 days. Investigations performed included detailed Total Cholesterol—TC (mg/dl), Triglyceride—TG (mg/dl), High Density Lipoprotein—HDL-C (mg/dl), Low Density Lipoprotein—LDL-C (mg/dl), Very Low-Density Lipoprotein—VLDL (mg/dl), WBC (10^3/u1), RBC (10^6/u1), Hb (g/dl), PCV (%), Reticulocyte (%), Platelet count 10^5/mm^3, Clotting time (Sec), Neutrophils, Lymphocyte, Monocyte and Eosinophil. The estimations were done with Ecoline kits from Erba Mannheim, ERBA diagnostics Mannheml, Germany using Semi Autoanalyzer RX50 of MicroLabs Instruments and COUNCELL21 of Tulip Diagnostics Pvt. Ltd. Lipid peroxidation (Plasma & Liver), HMG Co-Reductase, Creatine phosphokinase (CPK), Lactate dehydrogenase (LDH), SGOT and SGPT were estimated at the end of both the studies using the kits.

[3] = Therapeutic study: organ body weight after necropsy
Description: The prophylactic study which lasted 90 days used 6 rats per group. […] The 6 groups were as follows: • 1. Normal Control • 2. High Fat Diet (HFD) 1 ml 1/d+Normal Diet • 3. High Fat Diet (HFD)+Normal Diet+the composition of the present invention (OD) • 4, High Fat Diet (HFD)+Normal Diet+the composition of the present invention (BD) • 5. […] The body weights were recorded to the nearest gram (g) with proper tare to 0.0000 with the subject at steady state on the weighing machine. The same weighing machine was used for all the subjects. The machine was tested with a known set of weights for any error.

For `CC(C)c1c(C(=O)Nc2ccccc2)c(-c2ccccc2)c(-c2ccc(F)cc2)n1CC[C@@H](O)C[C@@H](O)CC(=O)O` [Statin, Atorvastatin], the “Average Body Weight” value ([1]; day 0) was 209.83 ± 26.39 gms, the “Average Body Weight” value ([1]; day 15) was 213.16 ± 27.47 gms and the “Average Body Weight” value ([1]; day 30) was 209.10 ± 20.10 gms. For the same compound, the “Average Body Weight” value ([1]; day 45) was 223.83 ± 28.41 gms, the “Average Body Weight” value ([1]; day 60) was 222.6 ± 17.46 gms and the “Average Body Weight” value ([1]; day 75) was 223.05 ± 8.08 gms. The “Average Body Weight” value ([1]; day 90) was 229.72 ± 6.13 gms, the “maintenance of body weight” value ([1]; prophylactic study, after HFD treatment) was “not able to maintain the body weight” and the Clotting time ([2]; HFD continued, day 0) was 113.33 ± 1.15 s. The Hb ([2]; HFD continued, day 0) was 12.30 ± 0.20 g/dL, the Monocyte ([2]; HFD continued, day 0) was 1.35% and the PCV ([2]; HFD continued, day 0) was 42.57 ± 1.36%. For the same compound, the Platelet count ([2]; HFD continued, day 0) was 1070 ± 13.9 10³/µL, the RBC ([2]; HFD continued, day 0) was 7.93 ± 0.15 10^6/μl and the Reticulocyte ([2]; HFD continued, day 0) was 1.28 ± 0.03%. The Lymphocyte ([2]; HFD continued, day 0) was 72, the Neutrophils ([2]; HFD continued, day 0) was 25.5 and the Eosinophil ([2]; HFD continued, day 0) was 1.25%. For the same compound, the Clotting time ([2]; HFD continued, day 15) was 114.33 ± 1.15 s, the Hb ([2]; HFD continued, day 15) was 12.40 ± 0.20 g/dL and the Monocyte ([2]; HFD continued, day 15) was 1.35%. The PCV ([2]; HFD continued, day 15) was 43.43 ± 1.53%, the Platelet count ([2]; HFD continued, day 15) was 1070 ± 11.6 10³/µL and the RBC ([2]; HFD continued, day 15) was 8.07 ± 0.15 10^6/μl. For the same compound, the WBC ([2]; HFD continued, day 15) was 8.58 ± 0.32 103/μl, the Lymphocyte ([2]; HFD continued, day 15) was 72 and the Neutrophils ([2]; HFD continued, day 15) was 25.5. The Eosinophil ([2]; HFD continued, day 15) was 1.25%, the Clotting time ([2]; HFD continued, day 30) was 114.37 ± 0.71 s and the Hb ([2]; HFD continued, day 30) was 12.83 ± 0.25 g/dL. For the same compound, the PCV ([2]; HFD continued, day 30) was 42.85 ± 0.25%, the Platelet count ([2]; HFD continued, day 30) was 1087 ± 3.61 10³/µL and the RBC ([2]; HFD continued, day 30) was 7.95 ± 0.03 10^6/μl. For the same compound, the Reticulocyte ([2]; HFD continued, day 30) was 1.31 ± 0.03%, the WBC ([2]; HFD continued, day 30) was 8.72 ± 0.07 103/μl and the Lymphocyte ([2]; HFD continued, day 30) was 71.2. The Neutrophils ([2]; HFD continued, day 30) was 26, the Eosinophil ([2]; HFD continued, day 30) was 1.28% and the Clotting time ([2]; HFD continued, day 45) was 114.40 ± 0.46 s. The Hb ([2]; HFD continued, day 45) was 12.88 ± 0.28 g/dL, the Monocyte ([2]; HFD continued, day 45) was 1.33% and the PCV ([2]; HFD continued, day 45) was 42.93 ± 0.42%. The Platelet count ([2]; HFD continued, day 45) was 1080 ± 14.5 10³/µL, the RBC ([2]; HFD continued, day 45) was 7.90 ± 0.05 10^6/μl and the Reticulocyte ([2]; HFD continued, day 45) was 1.33 ± 0.02%. For the same compound, the WBC ([2]; HFD continued, day 45) was 8.65 ± 0.08 103/μl, the Lymphocyte ([2]; HFD continued, day 45) was 71.67 and the Neutrophils ([2]; HFD continued, day 45) was 25.73. It also gave an Eosinophil ([2]; HFD continued, day 45) of 1.27%, a Clotting time ([2]; HFD continued, day 60) of 113.33 ± 1.24 s and a Hb ([2]; HFD continued, day 60) of 12.76 ± 0.28 g/dL. For the same compound, the PCV ([2]; HFD continued, day 60) was 42.53 ± 0.57%, the Platelet count ([2]; HFD continued, day 60) was 1070 ± 17 10³/µL and the RBC ([2]; HFD continued, day 60) was 7.83 ± 0.09 10^6/μl. The WBC ([2]; HFD continued, day 60) was 8.57 ± 0.12 103/μl, the Lymphocyte ([2]; HFD continued, day 60) was 71.67 and the Neutrophils ([2]; HFD continued, day 60) was 25.70. The Eosinophil ([2]; HFD continued, day 60) was 1.28%, the Clotting time ([2]; HFD discontinued, day 0) was 113.33 ± 1.53 s and the Hb ([2]; HFD discontinued, day 0) was 12.53 ± 0.38 g/dL. For the same compound, the Monocyte ([2]; HFD discontinued, day 0) was 1.35%, the PCV ([2]; HFD discontinued, day 0) was 41.43 ± 1.07% and the Platelet count ([2]; HFD discontinued, day 0) was 1080 ± 11 10³/µL. For the same compound, the RBC ([2]; HFD discontinued, day 0) was 7.73 ± 0.52 10^6/μl, the Reticulocyte ([2]; HFD discontinued, day 0) was 1.24 ± 0.04% and the WBC ([2]; HFD discontinued, day 0) was 8.67 ± 0.59 103/μl. The Lymphocyte ([2]; HFD discontinued, day 0) was 72, the Neutrophils ([2]; HFD discontinued, day 0) was 25.87 and the Eosinophil ([2]; HFD discontinued, day 0) was 1.25%. It also gave a Clotting time ([2]; HFD discontinued, day 15) of 113.50 ± 1.00 s, a Hb ([2]; HFD discontinued, day 15) of 12.58 ± 0.08 g/dL and a Monocyte ([2]; HFD discontinued, day 15) of 1.35%. For the same compound, the PCV ([2]; HFD discontinued, day 15) was 41.63 ± 1.02%, the Platelet count ([2]; HFD discontinued, day 15) was 1087 ± 8.02 10³/µL and the RBC ([2]; HFD discontinued, day 15) was 7.97 ± 0.32 10^6/μl. The Reticulocyte ([2]; HFD discontinued, day 15) was 1.26 ± 0.01%, the WBC ([2]; HFD discontinued, day 15) was 8.57 ± 0.42 103/μl and the Lymphocyte ([2]; HFD discontinued, day 15) was 72. It also gave a Neutrophils ([2]; HFD discontinued, day 15) of 25.97, an Eosinophil ([2]; HFD discontinued, day 15) of 1.25% and a Clotting time ([2]; HFD discontinued, day 30) of 113.00 ± 0.70 s. The Hb ([2]; HFD discontinued, day 30) was 12.62 ± 0.07 g/dL, the PCV ([2]; HFD discontinued, day 30) was 41.64 ± 0.07% and the Platelet count ([2]; HFD discontinued, day 30) was 1086 ± 8.19 10³/µL. The RBC ([2]; HFD discontinued, day 30) was 7.73 ± 0.03 10^6/μl, the Reticulocyte ([2]; HFD discontinued, day 30) was 1.27 ± 0.02% and the WBC ([2]; HFD discontinued, day 30) was 8.58 ± 0.04 103/μl. It also gave a Lymphocyte ([2]; HFD discontinued, day 30) of 71.3, a Neutrophils ([2]; HFD discontinued, day 30) of 26.1 and an Eosinophil ([2]; HFD discontinued, day 30) of 1.26%. It also gave a Clotting time ([2]; HFD discontinued, day 45) of 113.17 ± 0.35 s, a Hb ([2]; HFD discontinued, day 45) of 12.87 ± 0.26 g/dL and a Monocyte ([2]; HFD discontinued, day 45) of 1.27%. The PCV ([2]; HFD discontinued, day 45) was 41.42 ± 0.50%, the Platelet count ([2]; HFD discontinued, day 45) was 1070 ± 18.7 10³/µL and the RBC ([2]; HFD discontinued, day 45) was 7.65 ± 0.08 10^6/μl. For the same compound, the Reticulocyte ([2]; HFD discontinued, day 45) was 1.28 ± 0.07%, the WBC ([2]; HFD discontinued, day 45) was 8.51 ± 0.14 103/μl and the Lymphocyte ([2]; HFD discontinued, day 45) was 71.58. It also gave a Neutrophils ([2]; HFD discontinued, day 45) of 25.9, an Eosinophil ([2]; HFD discontinued, day 45) of 1.25% and a Clotting time ([2]; HFD discontinued, day 60) of 112.04 ± 1.28 s. For the same compound, the Hb ([2]; HFD discontinued, day 60) was 12.74 ± 0.27 g/dL, the Monocyte ([2]; HFD discontinued, day 60) was 1.25% and the PCV ([2]; HFD discontinued, day 60) was 41.01 ± 0.64%. The Platelet count ([2]; HFD discontinued, day 60) was 1060 ± 20.3 10³/µL, the RBC ([2]; HFD discontinued, day 60) was 7.57 ± 0.11 10^6/μl and the Reticulocyte ([2]; HFD discontinued, day 60) was 1.26 ± 0.06%. For the same compound, the WBC ([2]; HFD discontinued, day 60) was 8.42 ± 0.16 103/μl, the Lymphocyte ([2]; HFD discontinued, day 60) was 71.70 and the Neutrophils ([2]; HFD discontinued, day 60) was 25.81. The Eosinophil ([2]; HFD discontinued, day 60) was 1.24%, the “Intestine (organ body weight after necropsy)” value ([3]; HFD Continued) was 2.00 ± 0.02 and the “Kidney (organ body weight after necropsy)” value ([3]; HFD Continued) was 2.82 ± 0.06 g/100 g bd. wt. For the same compound, the “Liver (organ body weight after necropsy)” value ([3]; HFD Continued) was 4.51 ± 0.12 g/100 g, the “Lungs (organ body weight after necropsy)” value ([3]; HFD Continued) was 0.65 ± 0.03 g/100 g bd. wt and the “Pancrease (organ body weight after necropsy)” value ([3]; HFD Continued) was 0.89 ± 0.05 g/100 g bd. wt. The “Spleen (organ body weight after necropsy)” value ([3]; HFD Continued) was 1.19 ± 0.02, the “Intestine (organ body weight after necropsy)” value ([3]; HFD Discontinued) was 2.00 ± 0.02 and the “Kidney (organ body weight after necropsy)” value ([3]; HFD Discontinued) was 2.84 ± 0.04 g/100 g bd. wt. The “Liver (organ body weight after necropsy)” value ([3]; HFD Discontinued) was 4.37 ± 0.05 g/100 g, the “Lungs (organ body weight after necropsy)” value ([3]; HFD Discontinued) was 0.66 ± 0.03 g/100 g bd. wt and the “Pancrease (organ body weight after necropsy)” value ([3]; HFD Discontinued) was 0.91 ± 0.03 g/100 g bd. wt. For the same compound, the “Spleen (organ body weight after necropsy)” value ([3]; HFD Discontinued) was 1.17 ± 0.03.
